Article PMC9698663, “Testing Serum Albumins and Cyclodextrins as Potential Binders of the Mycotoxin Metabolites Alternariol-3-Sulfate, Alternariol-9-Monomethylether and Alternariol-9-Monomethylether-3-Sulfate” (International Journal of Molecular Sciences, 2022)
Structures can show the parent of a compound that is named as a salt. Where two headings read alike, the source gives them in different places.

Tests used:
[1] = target: T1, bovine serum albumin (BSA) (Bos taurus, UniProt P02769); assay: Fluorescence quenching of bovine serum albumin by mycotoxins; type: binding; conditions: for BSA logKSV (±SEM): Stern–Volmer quenching constant KSV in L/mol, linear fitting; for effect of environmental pH on binding to BSA: pH 5.0, 6.5, 7.4, 8.5, AME: pH 8.5 vs acidic and physiological conditions
T1 construct: purchased Merck (Darmstadt, Germany)
Method: (§1) Fluorescence emission spectra were collected employing a Hitachi F-4500 fluorescence spectrophotometer (Tokyo, Japan) at 25 °C and in the presence of air. UV–Vis absorption spectra of AS, AME, and AMS were recorded using a Jasco V730 UV–Vis spectrophotometer (Tokyo, Japan). In fluorescence spectroscopic studies, the inner-filter effects of mycotoxins were corrected as has been previously reported.
(§2) Then, fluorescence quenching studies were also performed, where increasing amounts of AS, AME, or AMS (final concentrations: 0–5 μM) were added to 2 μM concentrations of albumins (HSA, BSA, PSA, or RSA), after which emission spectra were recorded (λex = 295 nm). After the correction of the inner-filter effects, mycotoxin-induced changes were evaluated at 340 nm.
(§3) Quenching experiments were evaluated by employing the graphical application of the Stern–Volmer equation (linear fitting) and using HyperQuad2006 software (non-linear fitting). Stern–Volmer quenching constants (KSV; unit: L/mol) were determined based on the Stern–Volmer equation [30]:(1) I0/I=1+KSV×Q where I0 and I are the fluorescence emission intensities of albumin in the absence and presence of the quencher (mycotoxins), respectively; [Q] is the molar (mol/L) concentration of mycotoxins. Binding constants (K; unit: L/mol) were calculated using HyperQuad2006 software, as has been previously reported.

[2] = target: T2, porcine serum albumin (PSA) (Sus scrofa, UniProt P08835); assay: Fluorescence quenching of porcine serum albumin by mycotoxins; type: binding; conditions: for PSA logKSV (±SEM): Stern–Volmer quenching constant KSV in L/mol, linear fitting
T2 construct: purchased Merck (Darmstadt, Germany)
Method: as §1, §2, §3

rat serum albumin (RSA) [3] = target: T3, rat serum albumin (RSA) (Rattus norvegicus, UniProt P02770); assay: Fluorescence quenching of rat serum albumin by mycotoxins; type: binding; conditions: for RSA logKSV (±SEM): Stern–Volmer quenching constant KSV in L/mol, linear fitting
T3 construct: purchased Merck (Darmstadt, Germany)
Method: as §1, §2, §3

[4] = Fluorescence spectroscopic study of mycotoxin–SBECD complexes; type: binding; conditions: for SBECD logK (±SEM) BH-Plot / SBECD logK (±SEM) Hyperquad: binding constant K in L/mol; for SBECD logK (±SEM) BH-Plot: Benesi–Hildebrand plot; for SBECD logK (±SEM) BH-Plot / SBECD logK (±SEM) Hyperquad / logK with SBECD (approximate): sodium acetate buffer pH 5.0
Method: as §1
(§4) To examine the interaction of mycotoxins with the two CDs selected (SBECD and SGD), increasing amounts of the CDs (final concentrations: 0–10 mM) were added to mycotoxins (each 1 μM), then fluorescence emission spectra were recorded (λex = 335 nm for AS/AMS and 350 nm for AME; λem = 455 nm for AS, 485 nm for AME, and 460 nm for AMS). Binding constants (K, unit: L/mol) of mycotoxin–CD complexes were calculated employing the graphical application of the Benesi–Hildebrand equation (linear fitting) and using Hyperquad software (non-linear fitting). The Benesi–Hildebrand equation [25, 43] has been described as:(2) F0/F−F0=1/A+1/A×K×CD^n where, F0 and F are the fluorescence emission intensities of the mycotoxin in the absence and presence of CDs, respectively. [CD] is the molar concentration (mol/L) of the CD, while A is a constant, and n is the number of binding sites. Hyperquad evaluations were performed as has been previously reported.

[5] = Fluorescence spectroscopic study of mycotoxin–SGD complexes; type: binding; conditions: for SGD logK (±SEM) BH-Plot / SGD logK (±SEM) Hyperquad: binding constant K in L/mol; for SGD logK (±SEM) BH-Plot: Benesi–Hildebrand plot; for SGD logK (±SEM) BH-Plot / SGD logK (±SEM) Hyperquad / logK with SGD (approximate): sodium acetate buffer pH 5.0; for logK of mycotoxin–SGD complexes at pH 10.0: sodium borate buffer pH 10.0
Method: as §1, §4

[6] = target: T4, human serum albumin (HSA) (Homo sapiens, UniProt P02768); assay: Fluorescence quenching of human serum albumin by mycotoxins; type: binding; parameters: purchased Merck (Darmstadt, Germany); conditions: for HSA logKSV (±SEM): Stern–Volmer quenching constant KSV in L/mol, linear fitting
Method: as §1, §2, §3

[7] = target: T4, human serum albumin (HSA); assay: Ultracentrifugation studies (unbound fraction in presence of HSA); type: binding; parameters: purchased Merck (Darmstadt, Germany)
Method: To confirm the results of the quenching studies, the unbound fractions of AS, AME, and AMS were quantified in the presence of HSA. Applying the optimal conditions of ultracentrifugation, we can sediment albumin and albumin-bound molecules without the disruption of ligand–HSA interactions, then the free unbound fraction of the ligand molecule can be quantified from the protein-free supernatant. Samples contained AS, AME, or […] (each 10 μM) with HSA (20, 60, and 180 μM) in PBS (pH 7.4). These samples (900 μL) were centrifuged for 16 h at 170,000 g and 20 °C in 11 × 34 mm PC tubes (Beckman Coulter, Brea, CA, US), employing a Beckman Coulter Optima MAX-XP tabletop ultracentrifuge (with MLA-130 fixed-angle rotor). Then the concentrations of AS, AME, and AMS were directly analyzed from the supernatants with HPLC-FLD (see details in Section 3.7).
Assuming the 1:1 stoichiometry of complex formation, the binding constants (K) were calculated based on the following equation [36]:(3) K=MA/M×A where [M], [A], and [MA] are the molar concentrations (mol/L) of the free unbound mycotoxin, the free unbound albumin, and the mycotoxin–albumin complex, respectively.

[8] = target: T4, human serum albumin (HSA); assay: Ultrafiltration studies with Site I, Site II and Heme site markers; type: binding; parameters: purchased Merck (Darmstadt, Germany); conditions: mycotoxin 20 μM, PBS pH 7.4; for effect on filtered fraction of S-camptothecin (Heme site marker): camptothecin 1.0 μM + HSA 2.0 μM; for effect on filtered fraction of naproxen (Site II marker): naproxen 1.0 μM + HSA 1.5 μM; for effect on filtered fraction of warfarin (Site I marker): warfarin 1.0 μM + HSA 5.0 μM
Method: To test the binding sites of mycotoxin metabolites on HSA, ultrafiltration experiments were performed, where warfarin, naproxen, and S-camptothecin were used as Site I, Site II, and Heme site markers, respectively. Ultrafiltration studies were performed as described earlier, with minor modifications. Briefly, warfarin and naproxen samples were filtered using Amicon Ultra centrifugal filters (Merck, Darmstadt, Germany) with a 30 kDa molecular weight cut-off (MWCO) value. Camptothecin barely passed through these filters; therefore, the displacement of this Heme site marker was examined employing Pall Microsep Advance centrifugal devices (MWCO: 10 kDa; VWR, Budapest, Hungary). Each filter unit was washed once with water and once with PBS (pH 7.4). Thereafter, samples were centrifuged with a fixed angle rotor for 10 min at 7500 g and 25 °C. Before ultrafiltration, samples contained warfarin (1.0 μM) + HSA (5.0 μM), naproxen (1.0 μM) + HSA (1.5 μM), or camptothecin (1.0 μM) + HSA (2.0 μM) in the absence and presence of AS, AME, or AMS (each 20 μM) in PBS (pH 7.4). The filters used retain HSA (66.5 kDa) and albumin-bound ligands. Therefore, the elevated concentration of the site marker in the filtrate indicates its displacement from the protein [30, 36]. The concentrations of warfarin and camptothecin in the filtrate were analyzed by HPLC-FLD, while naproxen was quantified by HPLC-UV as has been previously reported.

rat serum albumin (RSA) [9] = target: T3, rat serum albumin (RSA); parameters: method as in PMID 31083629; conditions: previous study; cited from earlier work
[10] = target: T4, human serum albumin (HSA); conditions: cited from earlier work
[11] = target: T4, human serum albumin (HSA); parameters: purchased Merck (Darmstadt, Germany); method as in PMID 31083629; conditions: previous study; cited from earlier work
[12] = binding constant K in L/mol, fluorescence quenching, Hyperquad non-linear fitting, read-out: BSA logK (±SEM) (converted)
[13] = binding constant K in L/mol, fluorescence quenching, Hyperquad non-linear fitting, read-out: PSA logK (±SEM) (converted)
[14] = binding constant K in L/mol, fluorescence quenching, Hyperquad non-linear fitting, read-out: RSA logK (±SEM) (converted)
[15] = binding constant K in L/mol, fluorescence quenching, Hyperquad non-linear fitting, PBS pH 7.4, read-out: HSA logK (±SEM) (converted)
[16] = mycotoxin 10 μM, HSA 20, 60, 180 μM, PBS pH 7.4, Equation (3), 1:1 stoichiometry, read-out: logK of mycotoxin–HSA complexes (ultracentrifugation) (converted)

T3 sequence (P02770 25-608): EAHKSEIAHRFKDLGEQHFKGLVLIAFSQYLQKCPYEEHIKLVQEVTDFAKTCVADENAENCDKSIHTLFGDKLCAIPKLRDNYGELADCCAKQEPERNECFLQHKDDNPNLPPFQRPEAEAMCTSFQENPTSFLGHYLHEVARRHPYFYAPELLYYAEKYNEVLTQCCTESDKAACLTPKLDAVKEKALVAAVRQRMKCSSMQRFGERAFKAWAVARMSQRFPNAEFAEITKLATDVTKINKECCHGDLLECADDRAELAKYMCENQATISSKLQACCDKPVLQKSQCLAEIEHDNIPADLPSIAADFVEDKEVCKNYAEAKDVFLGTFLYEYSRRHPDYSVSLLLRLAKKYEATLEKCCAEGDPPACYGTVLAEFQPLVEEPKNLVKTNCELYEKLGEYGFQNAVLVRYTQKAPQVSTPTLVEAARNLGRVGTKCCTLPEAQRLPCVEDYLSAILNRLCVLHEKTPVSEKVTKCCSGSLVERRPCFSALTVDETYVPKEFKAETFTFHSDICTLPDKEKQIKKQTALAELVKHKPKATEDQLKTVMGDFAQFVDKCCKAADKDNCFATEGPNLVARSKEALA
T4 sequence (P02768 25-609): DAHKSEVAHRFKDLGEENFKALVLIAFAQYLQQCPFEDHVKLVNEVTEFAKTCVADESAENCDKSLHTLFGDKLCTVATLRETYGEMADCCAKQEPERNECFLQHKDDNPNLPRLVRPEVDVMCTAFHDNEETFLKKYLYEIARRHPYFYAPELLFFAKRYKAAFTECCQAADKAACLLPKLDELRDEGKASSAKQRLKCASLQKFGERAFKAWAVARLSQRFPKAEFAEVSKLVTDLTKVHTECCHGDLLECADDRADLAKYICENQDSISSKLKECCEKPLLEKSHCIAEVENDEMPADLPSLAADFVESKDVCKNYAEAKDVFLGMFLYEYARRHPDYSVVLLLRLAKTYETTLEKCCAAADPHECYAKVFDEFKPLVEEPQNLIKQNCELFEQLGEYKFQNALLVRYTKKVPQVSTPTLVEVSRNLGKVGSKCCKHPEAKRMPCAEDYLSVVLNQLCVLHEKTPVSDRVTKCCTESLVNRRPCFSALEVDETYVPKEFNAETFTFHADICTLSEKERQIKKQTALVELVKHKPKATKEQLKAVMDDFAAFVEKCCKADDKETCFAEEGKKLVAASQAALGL
T1 sequence (P02769 25-607): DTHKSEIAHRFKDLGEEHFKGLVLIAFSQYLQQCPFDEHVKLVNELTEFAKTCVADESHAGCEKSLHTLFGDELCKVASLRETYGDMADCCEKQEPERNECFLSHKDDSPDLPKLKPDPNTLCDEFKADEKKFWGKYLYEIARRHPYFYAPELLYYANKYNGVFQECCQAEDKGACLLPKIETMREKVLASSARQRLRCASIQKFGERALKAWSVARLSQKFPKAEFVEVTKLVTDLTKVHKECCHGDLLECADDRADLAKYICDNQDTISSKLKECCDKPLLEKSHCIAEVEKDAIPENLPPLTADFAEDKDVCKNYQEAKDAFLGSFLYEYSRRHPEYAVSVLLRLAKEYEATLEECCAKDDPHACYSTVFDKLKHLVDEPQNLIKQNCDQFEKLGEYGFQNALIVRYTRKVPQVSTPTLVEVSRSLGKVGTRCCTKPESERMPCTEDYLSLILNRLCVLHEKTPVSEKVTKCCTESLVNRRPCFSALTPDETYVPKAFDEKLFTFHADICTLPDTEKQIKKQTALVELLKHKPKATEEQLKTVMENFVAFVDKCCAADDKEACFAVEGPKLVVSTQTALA
T2 sequence (P08835 25-607): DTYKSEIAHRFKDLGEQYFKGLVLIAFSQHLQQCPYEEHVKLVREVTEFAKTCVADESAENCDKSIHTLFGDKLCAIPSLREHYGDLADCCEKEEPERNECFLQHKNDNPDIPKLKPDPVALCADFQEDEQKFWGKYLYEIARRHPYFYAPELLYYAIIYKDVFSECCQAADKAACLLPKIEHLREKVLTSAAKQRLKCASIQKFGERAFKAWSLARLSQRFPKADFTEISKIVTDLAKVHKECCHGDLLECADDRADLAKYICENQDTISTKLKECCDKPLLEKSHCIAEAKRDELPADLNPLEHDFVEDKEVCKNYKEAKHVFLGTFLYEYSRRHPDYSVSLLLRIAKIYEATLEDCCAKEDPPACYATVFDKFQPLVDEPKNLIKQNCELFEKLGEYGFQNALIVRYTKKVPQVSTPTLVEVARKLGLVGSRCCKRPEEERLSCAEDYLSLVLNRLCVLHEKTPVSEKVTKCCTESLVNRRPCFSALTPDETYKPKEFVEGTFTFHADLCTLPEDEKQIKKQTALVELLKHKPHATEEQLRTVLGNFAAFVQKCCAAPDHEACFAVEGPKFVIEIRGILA

For `COc1cc(O)c2c(=O)oc3cc(O)cc(C)c3c2c1` [AME, alternariol-9-monomethylether], the Kd [1] was 9.12 µM, the “BSA logKSV (±SEM)” value [1] was 4.93 ± 0.05 and the “effect of environmental pH on binding to BSA” value (“effect of environmental pH” below) [1] was “approximately ten-fold higher affinity”. For the same molecule, the Kd [2] was 14.8 µM, the “PSA logKSV (±SEM)” value [2] was 4.73 ± 0.06 and the Kd (rat serum albumin (RSA) [3]) was 5.13 µM. For the same molecule, the “RSA logKSV (±SEM)” value (rat serum albumin (RSA) [3]) was 5.15 ± 0.06, the “SBECD logK (±SEM) BH-Plot” value [4] was 3.46 ± 0.01 and the “SBECD logK (±SEM) Hyperquad” value [4] was 3.56 ± 0.01. For the same molecule, the “stability of AME–SBECD complex compared to CD complexes of the sulfate metabolites” value ([4]; pH 5.0) was “three-fold”, the “SGD logK (±SEM) BH-Plot” value [5] was 3.95 ± 0.01 and the “SGD logK (±SEM) Hyperquad” value [5] was 4.06 ± 0.01. For the same molecule, the “stability of AME–SGD complex compared to CD complexes of the sulfate metabolites” value ([5]; pH 5.0) was “ten-fold”, the “logK of mycotoxin–SGD complexes at pH 10.0” value (from here on “logK … at pH 10.0”) [5] was 4.25 ± 0.06 and the Kd [6] was 11.5 µM. For the same molecule, the “HSA logKSV (±SEM)” value ([6]; PBS pH 7.4) was 4.86 ± 0.05, the Kd [7] was 4.57 µM and the “effect on filtered fraction of S-camptothecin (Heme site marker)” value [8] was “no or only slight effects”. The “effect on filtered fraction of naproxen (Site II marker)” value (“effect on filtered fraction of naproxen” below) [8] was “no or only slight effects” and the “effect on filtered fraction of warfarin (Site I marker)” value [8] was “statistically significant (p < 0.05) impact”.
For `Cc1cc(O)cc2oc(=O)c3c(O)cc(O)cc3c12` [AOH, Alternariol], the “affinity for rat albumin compared to human or porcine albumins” value (rat serum albumin (RSA) [9]) is listed as “almost eight-fold higher affinity”, the “logK of AOH–HSA complex” value [10] is listed as 5.6 and the “displacement of naproxen (Site II marker) from HSA” value [11] is listed as “slightly displaced”. The “displacement of warfarin (Site I marker) from HSA” value [11] was “strongly displaced” and the “effect on filtered fraction of camptothecin (Heme site marker)” value [11] was “did not affect”.
In the case of `Cc1cc(OS(=O)(=O)O)cc2oc(=O)c3c(O)cc(O)cc3c12` [AS, Alternariol-3-sulfate ammonium salt], the “BSA logKSV (±SEM)” value [1] is reported as 5.60 ± 0.01, the Kd [1, 12] is reported as 1.62 µM and the “effect of environmental pH” value [1] is reported as “only minor changes”. For the same molecule, the “PSA logKSV (±SEM)” value [2] was 5.57 ± 0.02, the Kd [2, 13] was 1.66 µM and the “RSA logKSV (±SEM)” value (rat serum albumin (RSA) [3]) was 5.85 ± 0.03. For the same molecule, the Kd (rat serum albumin (RSA) [3]; [14]) was 0.832 µM, the “SBECD logK (±SEM) BH-Plot” value [4] was 3.02 ± 0.01 and the “SBECD logK (±SEM) Hyperquad” value [4] was 3.02 ± 0.03. For the same molecule, the “logK with SBECD (approximate)” value [4] was “≈ 3”, the “SGD logK (±SEM) BH-Plot” value [5] was 2.83 ± 0.01 and the “SGD logK (±SEM) Hyperquad” value [5] was 2.99 ± 0.03. For the same molecule, the “logK with SGD (approximate)” value [5] was “≈ 3”, the “logK … at pH 10.0” value [5] was 3.18 ± 0.58 and the “HSA logKSV (±SEM)” value ([6]; PBS pH 7.4) was 5.44 ± 0.07. The Kd [6, 15] was 2.45 µM, the Kd [7, 16] was 3.16 µM and the “effect on filtered fraction of S-camptothecin (Heme site marker)” value [8] was “marked increases”. The “effect on filtered fraction of naproxen” value [8] was “lower but significant (p < 0.01) effect” and the “effect on filtered fraction of warfarin (Site I marker)” value [8] was “marked increases”.
For `COc1cc(O)c2c(=O)oc3cc(OS(=O)(=O)O)cc(C)c3c2c1` [AMS, alternariol-9-monomethylether-3-sulfate ammonium salt], the “BSA logKSV (±SEM)” value [1] was 5.81 ± 0.01, the Kd [1, 12] was 0.933 µM and the “effect of environmental pH” value [1] was “only minor changes”. For the same molecule, the “PSA logKSV (±SEM)” value [2] was 5.60 ± 0.02, the Kd [2, 13] was 1.66 µM and the “RSA logKSV (±SEM)” value (rat serum albumin (RSA) [3]) was 5.92 ± 0.03. For the same molecule, the Kd (rat serum albumin (RSA) [3]; [14]) was 0.741 µM, the “SBECD logK (±SEM) BH-Plot” value [4] was 2.96 ± 0.01 and the “SBECD logK (±SEM) Hyperquad” value [4] was 3.08 ± 0.01. The “logK with SBECD (approximate)” value [4] was “≈ 3”, the “SGD logK (±SEM) BH-Plot” value [5] was 2.95 ± 0.05 and the “SGD logK (±SEM) Hyperquad” value [5] was 3.21 ± 0.04. The “logK with SGD (approximate)” value [5] was “≈ 3”, the “logK … at pH 10.0” value [5] was 3.39 ± 0.10 and the “HSA logKSV (±SEM)” value ([6]; PBS pH 7.4) was 5.42 ± 0.06. For the same molecule, the Kd [6, 15] was 2.63 µM, the Kd [7, 16] was 3.24 µM and the “effect on filtered fraction of S-camptothecin (Heme site marker)” value [8] was “large”. The “effect on filtered fraction of naproxen” value [8] was “moderate” and the “effect on filtered fraction of warfarin (Site I marker)” value [8] was “did not affect”.
